Active and inactive are the calls of the source. No cut-off for these calls is given here.

The nature of data set [1]: Antioxidant activity of the compound assessed as inhibition of ABTS radicals after 20 mins by spectrophotometric analysis. It counts as physicochemical.
Data set [2] deals with Saccharomyces cerevisiae. Briefly: Inhibition of Saccharomyces cerevisiae alpha-glucosidase type 1 assessed as 4-nitrophenol cleavage product by high-resolution biochromatogram.

Turning to `O=c1c(-c2ccc(O)cc2)coc2cc(O)cc(O)c12` [GENISTEIN], the “inhibition (INH)” value in data set [1] is “Not Active”.

Consider `O=c1c(-c2ccc(O)cc2)coc2cc(O[C@@H]3O[C@H](CO)[C@@H](O)[C@H](O)[C@H]3O)ccc12` [DAIDZIN], for which, in data set [1], the “inhibition (INH)” value is recorded as “Not Active”. In addition, the result in data set [2] was Active.

With `COc1ccc(-c2coc3cc(O)ccc3c2=O)cc1` [FORMONONETIN], the “inhibition (INH)” value in data set [1] is “Not Active”.

Regarding `O=C(O)CC(=O)OC[C@H]1O[C@@H](Oc2ccc3c(=O)c(-c4ccc(O)cc4)coc3c2)[C@H](O)[C@@H](O)[C@@H]1O`, in data set [1], the “inhibition (INH)” value was “Not Active”. The outcome in data set [2] was Active.

`O=C(O)CC(=O)OC[C@H]1O[C@@H](Oc2cc(O)c3c(=O)c(-c4ccc(O)cc4)coc3c2)[C@H](O)[C@@H](O)[C@@H]1O`: the “inhibition (INH)” value in data set [1] is on record as “Not Active”. The result in data set [2] was Active.

With `COc1ccc(-c2coc3cc(O[C@@H]4O[C@H](CO)[C@@H](O)[C@H](O)[C@H]4O)cc(O)c3c2=O)cc1`, the “inhibition (INH)” value in data set [1] was “Not Active”.

`COc1ccc(-c2coc3cc(O[C@@H]4O[C@H](COC(=O)CC(=O)O)[C@@H](O)[C@H](O)[C@H]4O)ccc3c2=O)cc1`: the “inhibition (INH)” value in data set [1] is given as “Not Active”.

With `COc1ccc(-c2coc3cc(O[C@@H]4O[C@H](CO)[C@@H](O)[C@H](O)[C@H]4O)ccc3c2=O)cc1` [ONONIN], the “inhibition (INH)” value in data set [1] is “Not Active”.

Consider `O=c1c(-c2ccc(O)cc2)coc2c([C@@H]3O[C@H](CO)[C@@H](O)[C@H](O)[C@H]3O)c(O)ccc12` [PUERARIN], for which the “inhibition (INH)” value in data set [1] was “Not Active”. Moreover, the result in data set [2] was Active.

With `O=c1c(-c2ccc(O)cc2)coc2cc(O[C@@H]3O[C@H](CO)[C@@H](O)[C@H](O)[C@H]3O)cc(O)c12` [GENISTIN], the “inhibition (INH)” value in data set [1] is “Not Active”. For the same compound, the outcome in data set [2] was Active.

In the case of `COc1ccc(C2=CC(=O)O[C@H]2Cc2ccc(O)cc2)c(O[C@@H]2O[C@H](CO)[C@@H](O)[C@H](O)[C@H]2O)c1`, the “inhibition (INH)” value in data set [1] was “Not Active”. Besides, the outcome in data set [2] was Active.

Take `O=c1c(-c2ccc(O[C@@H]3O[C@H](CO)[C@@H](O)[C@H](O)[C@H]3O)cc2)coc2cc(O)ccc12`: the “inhibition (INH)” value in data set [1] is given as “Not Active”.

Turning to `COc1cc(-c2coc3cc(O[C@@H]4O[C@H](CO)[C@@H](O)[C@H](O)[C@H]4O)ccc3c2=O)ccc1O`, the “inhibition (INH)” value in data set [1] was “Not Active”.

For `COc1cc(-c2coc3cc(O[C@@H]4O[C@H](COC(=O)CC(=O)O)[C@@H](O)[C@H](O)[C@H]4O)ccc3c2=O)ccc1O`, the “inhibition (INH)” value in data set [1] was “Not Active”.

With `O=Cc1c(-c2ccc(O)cc2O)oc2cc(O)ccc12`, the “inhibition (INH)” value in data set [1] is “Active”.

On to `COc1ccc(-c2coc3cc(O[C@@H]4O[C@H](COC(=O)CC(=O)O)[C@@H](O)[C@H](O)[C@H]4O)cc(O)c3c2=O)cc1`, for which the “inhibition (INH)” value in data set [1] is reported as “Not Active”.

As for `O=c1c(-c2ccc(O)cc2)coc2cc(O)ccc12` [DAIDZEIN], the “inhibition (INH)” value in data set [1] is “Active”. In addition, in data set [2], the outcome was Active.

These data come from ChEMBL document CHEMBL3425492, “Dual high-resolution α-glucosidase and radical scavenging profiling combined with HPLC-HRMS-SPE-NMR for identification of minor and major constituents directly from the crude extract of Pueraria lobata” (J Nat Prod, 2015).
